In US20230399666A1, “METHODS AND COMPOSITIONS FOR THE PRODUCTION OF RHAMNOLIPID” (THE REGENTS OF THE UNIVERSITY OF CALIFORNIA, priority 2022, published 2023):

Assays:
M. alcahphilum = assay: Antimicrobial activity of Ptet inducer anhydrotetracycline, evaluated on methanol; format: cell-based, Methylotuvimicrobium alcaliphilum
Protocol: Luria-Bertani (LB) broth and agar plates are routinely used to culture E. coli cells at 37° C. For routine cultivation of M. alcahphilum strain WT (wild type) and its derivatives, Pi (π) media with 3% (w/v) NaCl is used as described in Collins and Kaluzhnaya.^56 When needed, kanamycin (Kan) is added to the growth medium at 100 μg/mL for ts. alcahphilum and 50 μg/mL for E. coli cultures. Ampicillin is added to the growth medium at 100 μg/mL. M alcahphilum cell cultures are grown as batch cultures, either 4 mL culture in 20 mL anaerobic glass tubes or 10 mL culture in 50 mL serum vials, under a methane (99.9%; Airgas): air atmosphere (1:1). Cell cultures are incubated at 30° shaking at 220 rpm. Cell growth is measured as optical density (OD 600 nm) using Spectronic 200E spectroscope at time points mentioned in results and discussion. Single colony isolates and transformant selections are performed on Pi media agar plates incubated in anaerobic jars (Oxoid; Remel) under a methane-air atmosphere (1:1). For M. alcahphilum (pDA17) induction, antimicrobial activity of Ptet inducer, anhydrotetracycline (aTC) is first evaluated (FIG. 7) on methanol, it is observed that aTC antimicrobial effect on M. alcahphilum is apparent at concentration >2.5 μg/mL. Thus, based on the observation and previous report 33 , concentration of 1 μg/mL aTC is used for optimal gene expression. […]

[1] = test system: M. alcaliphilum strain DASS; assay: Rhamnolipid tolerance of the adapted strain after adaptive laboratory evolution; format: cell-based, Methylotuvimicrobium alcaliphilum
Protocol: A course of adaptive laboratory evolution to allow M. alcaliphilum to grow on CH4 in the RLs is followed for four months. During this adaptation, M. alcaliphilum strain DSM19304 (hereafter referred as WT, wild type) is subjected to gradually increasing RL concentration starting from 0.5 g/L to 5 g/L (FIG. 2B). At the end of multiple transfers over a period of four months, an M. alcaliphilum strain tolerant to RLs (strain DASS) is obtained.
M. alcahphilum strain DSM19304 is grown in batch cultures of 10 mL Pi media in 50 mL serum vials under a methane-air atmosphere at 30° C. with agitation at 200 rpm. To adapt the cells to grow in the presence of RLs, 0.5 g/L RL (90% mono-RL, Millipore Sigma) is supplemented to the starting cell culture. The concentration of RLs is increased gradually and stepwise (1, 1.5, 2, 3, 4 and 5 g/L) to achieve a final strain of M. alcahphilum tolerant to 5 g/L RL. A 0.1% inoculum is manually transferred from a growing batch culture to a fresh culture in 48-60h. The RL concentration in the media is increased to next higher concentration when the OD 600 nm at 48 h of the growing batch culture with RL reached similar OD600 to WT (>1.0) at the end of 48 h. After the adaptation, single colonies of M. alcahphilum strain DASS are isolated on Pi media agar plates. Multiple single colony isolates are confirmed to be M. alcahphilum via 16S rRNA sequencing to rule out possibility of co-contaminants. No differences are observed in growth of multiple single colonies that are tested, one clone is selected for further analysis and plasmid transformation.

E. coli = settings: literature; cited from earlier work
[2] = test system: M. alcaliphilum strain DSM19304 (WT); assay: Inhibitory effect of rhamnolipids on growth (OD600) of M. alcaliphilum wild type on CH4; format: cell-based, Methylotuvimicrobium alcaliphilum
Description: M. alcaliphilum converts methane by sequential oxidation to formaldehyde, which enters the central carbon metabolism through the RUMP pathway^39. M. alcaliphilum produces high amounts of glycogen, sucrose and ectoine with smaller amounts of lactate, formate, succinate and no known reports of RLs^38,40,41. Rhamnolipids are used as biocontrol/anti-microbial agents, and increasing rhamnolipid concentrations are found to negatively impact growth of Gram-negative and Gram-positive heterologous hosts, E. coli, Bacillus subtilis and Corynebacterium glutamicum^23. Therefore, M. alcaliphilum growth is tested in the presence of RLs. […] The RL toxicity to M. alcaliphilum is much higher than reported concentrations in other Gram-negative host like E. coli (>90 g/L). The toxicity of RLs to M. alcaliphilum required adaptive evolution to permit the strain to produce rhamnolipids.
Luria-Bertani (LB) broth and agar plates are routinely used to culture E. coli cells at 37° C. For routine cultivation of M. alcahphilum strain WT (wild type) and its derivatives, Pi (π) media with 3% (w/v) NaCl is used as described in Collins and Kaluzhnaya.^56 When needed, kanamycin (Kan) is added to the growth medium at 100 μg/mL for ts. alcahphilum and 50 μg/mL for E. coli cultures. Ampicillin is added to the growth medium at 100 μg/mL. M alcahphilum cell cultures are grown as batch cultures, either 4 mL culture in 20 mL anaerobic glass tubes or 10 mL culture in 50 mL serum vials, under a methane (99.9%; Airgas): air atmosphere (1:1). Cell cultures are incubated at 30° shaking at 220 rpm. Cell growth is measured as optical density (OD 600 nm) using Spectronic 200E spectroscope at time points mentioned in results and discussion. Single colony isolates and transformant selections are performed on Pi media agar plates incubated in anaerobic jars (Oxoid; Remel) under a methane-air atmosphere (1:1). For M. alcahphilum (pDA17) induction, antimicrobial activity of Ptet inducer, anhydrotetracycline (aTC) is first evaluated (FIG. 7) on methanol, it is observed that aTC antimicrobial effect on M. alcahphilum is apparent at concentration >2.5 μg/mL. Thus, based on the observation and previous report 33 , concentration of 1 μg/mL aTC is used for optimal gene expression. M. alcahphilum (pDA17) cultures are induced with anhydrotetracycline (1 μg/mL) at time of inoculation^33.

Q: For `Cc1c2c(c(O)c3c(O)cccc13)C(=O)[C@]1(O)C(=O)C(C(N)=O)=C(O)[C@@H](N(C)C)[C@@H]1C2` [aTC, anhydrotetracycline], which “concentration at which antimicrobial effect is apparent” value (M. alcahphilum) is on record?
A: > 2.5 µg/mL

Q: Which “fold higher concentration in which the adapted strain grows compared to parent strain” value ([1]; DASS vs parent strain) does the source give for rhamnolipids here?
A: 10 fold

Q: And the tolerated rhamnolipid concentration ([1]; evolved strain DASS, grown on CH4, listed as RL)?
A: 5 g/L

Q: And the “growth with RL in the absence of CH4 (RL as carbon source)” value ([1]; strain DASS, 5 g/L RL, no CH4)?
A: did not promote growth

Q: What about the reported toxic concentration (E. coli) of the same molecule?
A: > 90 g/L

Q: And the growth inhibition ([2]; 1 g/L RL amendment, 36 hours of culture)?
A: almost complete inhibition

Q: And the “concentration inhibitory to growth” value ([2]; M. alcaliphilum DSM19304)?
A: < 0.05 g/L

Q: What about the “reduction in final optical density” value ([2]; medium amended with 0.1 g/L RL, 36 hours of culture) of the same molecule?
A: 50%

Q: What about the MIC ([2]; parent strain DSM19304) of the same molecule?
A: 0.5 g/L

Q: And the “concentration of rhamnolipids that cannot be tolerated” value ([2]; strain DSM19304, surfactant effects)?
A: 0.5 g/L
